Laboratory results reported in patent US5763460A, “N-(piperidinyl-1-alkyl)-substituted cyclohexane carboxylic acid amides as 5-htia receptor antagonists” (John Wyeth & Brother Limited, priority 1993, dated 1998).

Key:
[1] = biological target: T1, 5-HT1A receptor (Rattus norvegicus, UniProt P19327); test: 5-HT1A receptor binding activity in rat hippocampal membrane homogenate; settings: method of Alexander and Wood
T1 construct: rat hippocampal membrane homogenate; from tissue; host or cells: rat hippocampal membrane homogenate
T1 sequence (P19327 1-422): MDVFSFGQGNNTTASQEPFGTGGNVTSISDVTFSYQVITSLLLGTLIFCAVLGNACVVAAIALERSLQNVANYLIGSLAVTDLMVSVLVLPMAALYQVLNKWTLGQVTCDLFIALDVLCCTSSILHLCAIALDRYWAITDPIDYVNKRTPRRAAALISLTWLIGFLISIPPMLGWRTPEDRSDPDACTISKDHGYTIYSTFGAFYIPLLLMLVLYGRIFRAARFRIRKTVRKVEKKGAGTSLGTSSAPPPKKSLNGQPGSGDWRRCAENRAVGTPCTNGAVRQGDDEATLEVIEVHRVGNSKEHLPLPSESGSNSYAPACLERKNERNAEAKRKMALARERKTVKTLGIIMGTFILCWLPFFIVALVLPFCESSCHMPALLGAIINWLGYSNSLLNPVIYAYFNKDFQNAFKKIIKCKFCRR
Description: The compounds of the invention are tested for 5-HT1A receptor binding activity in rat hippocampal membrane homogenate by the method of B. S. Alexander and M. D. Wood, J Pharm Pharmacol. 1988, 40, 888-891.

[2] = biological target: T2, 5-HT1A receptor (Cavia porcellus, UniProt A0A286Y074); test: 5-HT1A receptor antagonism: antagonism of 5-carboxamidotryptamine in the guinea-pig ileum in vitro
T2 construct: guinea-pig ileum in vitro; from tissue; host or cells: guinea-pig ileum
T2 sequence (A0A286Y074 1-421): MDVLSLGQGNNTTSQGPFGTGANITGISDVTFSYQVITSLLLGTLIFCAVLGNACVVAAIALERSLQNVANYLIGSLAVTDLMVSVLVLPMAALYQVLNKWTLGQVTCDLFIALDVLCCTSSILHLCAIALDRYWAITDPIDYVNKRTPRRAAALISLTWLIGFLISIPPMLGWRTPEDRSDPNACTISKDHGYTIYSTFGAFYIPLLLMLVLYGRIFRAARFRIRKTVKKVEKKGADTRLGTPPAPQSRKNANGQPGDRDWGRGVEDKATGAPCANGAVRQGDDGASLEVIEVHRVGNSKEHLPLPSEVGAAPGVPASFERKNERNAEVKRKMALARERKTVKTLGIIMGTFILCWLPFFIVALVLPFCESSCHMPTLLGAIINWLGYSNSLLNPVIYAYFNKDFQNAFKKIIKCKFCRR
Description: The compounds are tested for 5-HT1A receptor antagonism activity in a test involving the antagonism of 5-carboxamidotryptamine in the guinea-pig ileum in vitro (based upon the procedure of Fozard et al, Br J Pharmac, 1985, 86, 601 P).

[3] = test system: α1 site; test: affinity for the α1 site; assay type: binding; settings: procedure of A. L. Marrow et al

IC50 [1]: 3.5 nM
pA2 [2]: 7.9
IC50 [3]: 858 nM
SMILES: COc1ccccc1C1CCN([C@H](C)CN(C(=O)C2CCCCC2)c2ccccn2)CC1 [Example 1, (R)-N-(2-(1-(4-(2-Methoxyphenyl)piperidinyl))propyl)-N-(2-pyridyl)cyclohexanecarboxamide]
